Measured values reported in patent US8030321B2, “Benzofuro- and benzothienopyrimidine modulators of the histamine H4 receptor” (Janssen Pharmaceutica, NV, priority 2006, dated 2011).
Where a name gives a salt, the structure may show the parent alone.

Molecular target: T1, human histamine H4 receptor (Homo sapiens, UniProt Q9H3N8)
T1 construct: expressed in transfected cells; host or cells: SK-N-MC cells or COS7 cells, transiently transfected; cell membranes used
Test: Binding Assay on Recombinant Human Histamine H4 Receptor
Details: not given
Experimental: Binding Assay on Recombinant Human Histamine H4 Receptor
SK-N-MC cells or COS7 cells were transiently transfected with pH4R and grown in 150 cm^2 tissue culture dishes. Cells were washed with saline solution, scraped with a cell scraper and collected by centrifugation (1000 rpm, 5 min). Cell membranes were prepared by homogenization of the cell pellet in 20 mM Tris-HCl with a polytron tissue homogenizer for 10 sec at high speed. Homogenate was centrifuged at 1000 rpm for 5 min at 4° C. […] The final pellet was resuspended in 50 mM Tris-HCl. Cell membranes were incubated with ^3H-histamine (5-70 nM) in the presence or absence of excess histamine (10,000 nM). […] Membranes were harvested by rapid filtration over Whatman GF/C filters and washed 4 times with ice-cold 50 mM Tris HCl. Filters were then dried, mixed with scintillant and counted for radioactivity. SK-N-MC or COS7 cells expressing human histamine H4 receptor were used to measure the affinity of binding of other compounds and their ability to displace ^3H-ligand binding by incubating the above-described reaction in the presence of various concentrations of inhibitor or compound to be tested.

Row | Structure (SMILES) | Ki
1 | Nc1nc(N2CCN3CCCC3C2)c2oc3ccc(F)cc3c2n1 (stereo not shown) [Example 40, 8-Fluoro-4-(hexahydro-pyrrolo[1,2-a]pyrazin-2-yl)-benzo[4,5]furo[3,2-d]pyrimidin-2-ylamine trifluoroacetic acid salt] | 44 nM
2 | Nc1nc(N2CC3CCCNC3C2)c2oc3ncccc3c2n1 (stereo not shown) [Example 43, 8-(Octahydro-pyrrolo[3,4-b]pyridin-6-yl)-9-oxa-1,5,7-triaza-fluoren-6-ylamine] | 87 nM
3 | Nc1nc(N2CC3CCCNC3C2)c2sc3ccc(Br)cc3c2n1 (stereo not shown) [Example 45, 8-Bromo-4-(octahydro-pyrrolo[3,4-b]pyridin-6-yl)-benzo[4,5]thieno[3,2-d]pyrimidin-2-ylamine hydrochloride salt] | 4.8 nM
4 | Nc1nc(N2CC3CCCNC3C2)c2sc3cc(Br)ccc3c2n1 (stereo not shown) [Example 46, 7-Bromo-4-(octahydro-pyrrolo[3,4-b]pyridin-6-yl)-benzo[4,5]thieno[3,2-d]pyrimidin-2-ylamine trifluoroacetic acid salt] | 28 nM
5 | Nc1nc(N2C[C@@H]3C[C@H]2CN3)c2sc3ccc(Br)cc3c2n1 [Example 49, (S,S)-8-Bromo-4-(2,5-diaza-bicyclo[2.2.1]hept-2-yl)-benzo[4,5]thieno[3,2-d]pyrimidin-2-ylamine hydrochloride salt] | 350 nM
6 | Nc1nc(N2C[C@@H]3C[C@H]2CN3)c2sc3cc(Cl)ccc3c2n1 [Example 62, (S,S)-7-Chloro-4-(2,5-diaza-bicyclo[2.2.1]hept-2-yl)-benzo[4,5]thieno[3,2-d]pyrimidin-2-ylamine trifluoroacetic acid salt] | 880 nM
7 | Nc1nc(N2CC3CCCNC3C2)c2sc3ccc(Cl)cc3c2n1 (stereo not shown) [Example 64, 8-Chloro-4-(octahydro-pyrrolo[3,4-b]pyridin-6-yl)-benzo[4,5]thieno[3,2-d]pyrimidin-2-ylamine trifluoroacetic acid salt] | 5 nM

Same assay, conditions: competition binding with 3H-histamine (5 nM), membranes of SK-N-MC or COS7 cells expressing human H4 receptor; Cheng-Prusoff, KD 5 nM; average of results obtained; read-out: Ki

Row | Structure (SMILES) | Ki
8 | Nc1nc(N2CCNCC2)c2oc3c(Cl)cc(Cl)cc3c2n1 [Example 31, 6,8-Dichloro-4-piperazin-1-yl-benzo[4,5]furo[3,2-d]pyrimidin-2-ylamine trifluoroacetic acid salt] | 140 nM
9 | Nc1nc(N2CCCNCC2)c2oc3c(Cl)cc(Cl)cc3c2n1 [Example 32, 6,8-Dichloro-4-[1,4]diazepan-1-yl-benzo[4,5]furo[3,2-d]pyrimidin-2-ylamine trifluoroacetic acid salt] | 160 nM
10 | Nc1nc(N2C[C@@H]3C[C@H]2CN3)c2oc3ccccc3c2n1 [Example 33, (S,S)-4-(2,5-Diaza-bicyclo[2.2.1]hept-2-yl)-benzo[4,5]furo[3,2-d]pyrimidin-2-ylamine trifluoroacetic acid salt] | 200 nM
11 | CC(C)N1CCN(c2nc(N)nc3c2oc2ccc(Cl)cc23)CC1 [Example 34, 8-Chloro-4-(4-isopropyl-piperazin-1-yl)-benzo[4,5]furo[3,2-d]pyrimidin-2-ylamine trifluoroacetic acid salt] | 240 nM
12 | CN(C)C1CCN(c2nc(N)nc3c2oc2c(Cl)cc(Cl)cc23)C1 (stereo not shown) [Example 35, 6,8-Dichloro-4-(3-dimethylamino-pyrrolidin-1-yl)-benzo[4,5]furo[3,2-d]pyrimidin-2-ylamine trifluoroacetic acid salt] | 380 nM
13 | Nc1nc(N2CCN3CCCCC3C2)c2oc3ccccc3c2n1 (stereo not shown) [Example 36, 4-(Octahydro-pyrido[1,2-a]pyrazin-2-yl)-benzo[4,5]furo[3,2-d]pyrimidin-2-ylamine trifluoroacetic acid salt] | 680 nM
14 | Nc1nc(N2CCN3CCCCC3C2)c2oc3c(Cl)cc(Cl)cc3c2n1 (stereo not shown) [Example 37, 6,8-Dichloro-4-(octahydro-pyrido[1,2-a]pyrazin-2-yl)-benzo[4,5]furo[3,2-d]pyrimidin-2-ylamine trifluoroacetic acid salt] | 790 nM
15 | Nc1nc(N2C[C@@H]3C[C@H]2CN3)c2oc3c(Cl)cc(Cl)cc3c2n1 [Example 38, (S,S)-6,8-Dichloro-4-(2,5-diaza-bicyclo[2.2.1]hept-2-yl)-benzo[4,5]furo[3,2-d]pyrimidin-2-ylamine trifluoroacetic acid salt] | > 10000 nM
16 | CN1CCC(N(C)c2nc(N)nc3c2oc2ccc(F)cc23)C1 (stereo not shown) [Example 41, 8-Fluoro-N^4-methyl-N^4-(1-methyl-pyrrolidin-3-yl)-benzo[4,5]furo[3,2-d]pyrimidine-2,4-diamine trifluoroacetic acid salt] | 110 nM
17 | CN[C@H]1CCN(c2nc(N)nc3c2sc2cc(C(F)(F)F)ccc23)C1 [Example 51, (S)-4-(3-Methylamino-pyrrolidin-1-yl)-7-trifluoromethyl-benzo[4,5]thieno[3,2-d]pyrimidin-2-ylamine trifluoroacetic acid salt] | > 10000 nM
18 | CN[C@@H]1CCN(c2nc(N)nc3c2sc2cc(C(F)(F)F)ccc23)C1 [Example 52, (R)-4-(3-Methylamino-pyrrolidin-1-yl)-7-trifluoromethyl-benzo[4,5]thieno[3,2-d]pyrimidin-2-ylamine trifluoroacetic acid salt] | 120 nM
19 | Nc1nc(N2C[C@@H]3C[C@H]2CN3)c2sc3cc(C(F)(F)F)ccc3c2n1 [Example 53, (S,S)-4-(2,5-Diaza-bicyclo[2.2.1]hept-2-yl)-7-trifluoromethyl-benzo[4,5]thieno[3,2-d]pyrimidin-2-ylamine trifluoroacetic acid salt] | > 10000 nM
20 | CN1CCN(c2nc(N)nc3c2sc2cc(C(F)(F)F)ccc23)CC1 [Example 54, 4-(4-Methyl-piperazin-1-yl)-7-trifluoromethyl-benzo[4,5]thieno[3,2-d]pyrimidin-2-ylamine trifluoroacetic acid salt] | 440 nM
21 | CN[C@H]1CCN(c2nc(N)nc3c2sc2cc(Br)ccc23)C1 [Example 57, (S)-7-Bromo-4-(3-methylamino-pyrrolidin-1-yl)-benzo[4,5]thieno[3,2-d]pyrimidin-2-ylamine trifluoroacetic acid salt] | 150 nM
22 | Nc1nc(N2CC3CCCNC3C2)c2sc3cc(C(F)(F)F)ccc3c2n1 (stereo not shown) [Example 58, 4-(Octahydro-pyrrolo[3,4-b]pyridin-6-yl)-7-trifluoromethyl-benzo[4,5]thieno[3,2-d]pyrimidin-2-ylamine trifluoroacetic acid salt] | 300 nM

Second part, the compound after the results:

Row | Ki | Structure (SMILES)
23 | 2.3 nM | CN[C@@H]1CCN(c2nc(N)nc3c2oc2ccc(F)cc23)C1 [Example 39, (R)-8-Fluoro-4-(3-methylamino-pyrrolidin-1-yl)-benzo[4,5]furo[3,2-d]pyrimidin-2-ylamine trifluoroacetic acid salt]
24 | 71 nM | CN[C@@H]1CCN(c2nc(N)nc3c2oc2ncccc23)C1 [Example 42, (R)-8-(3-Methylamino-pyrrolidin-1-yl)-9-oxa-1,5,7-triaza-fluoren-6-ylamine]
25 | 29 nM | CN1CCN(c2nc(N)nc3c2sc2ccccc23)CC1 [Example 44, 4-(4-Methyl-piperazin-1-yl)-benzo[4,5]thieno[3,2-d]pyrimidin-2-ylamine]
26 | 100 nM | CN[C@H]1CCN(c2nc(N)nc3c2sc2ccc(Br)cc23)C1 [Example 47, (S)-8-Bromo-4-(3-methylamino-pyrrolidin-1-yl)-benzo[4,5]thieno[3,2-d]pyrimidin-2-ylamine hydrochloride salt]
27 | 2.1 nM | CN[C@@H]1CCN(c2nc(N)nc3c2sc2ccc(Br)cc23)C1 [Example 48, (R)-8-Bromo-4-(3-methylamino-pyrrolidin-1-yl)-benzo[4,5]thieno[3,2-d]pyrimidin-2-ylamine hydrochloride salt]
28 | 1 nM | CN1CCN(c2nc(N)nc3c2sc2ccc(Br)cc23)CC1 [Example 50, 8-Bromo-4-(4-methyl-piperazin-1-yl)-benzo[4,5]thieno[3,2-d]pyrimidin-2-ylamine hydrochloride salt]
29 | 43 nM | CN1CCN(c2nc(N)nc3c2sc2cc(Br)ccc23)CC1 [Example 55, 7-Bromo-4-(4-methyl-piperazin-1-yl)-benzo[4,5]thieno[3,2-d]pyrimidin-2-ylamine trifluoroacetic acid salt]
30 | 25 nM | CN[C@@H]1CCN(c2nc(N)nc3c2sc2cc(Br)ccc23)C1 [Example 56, (R)-7-Bromo-4-(3-methylamino-pyrrolidin-1-yl)-benzo[4,5]thieno[3,2-d]pyrimidin-2-ylamine trifluoroacetic acid salt]
31 | 5.2 nM | CN[C@@H]1CCN(c2nc(N)nc3c2sc2cc(Cl)ccc23)C1 [Example 60, (R)-7-Chloro-4-(3-methylamino-pyrrolidin-1-yl)-benzo[4,5]thieno[3,2-d]pyrimidin-2-ylamine trifluoroacetic acid salt]
32 | 33 nM | CN[C@H]1CCN(c2nc(N)nc3c2sc2cc(Cl)ccc23)C1 [Example 61, (S)-7-Chloro-4-(3-methylamino-pyrrolidin-1-yl)-benzo[4,5]thieno[3,2-d]pyrimidin-2-ylamine trifluoroacetic acid salt]
33 | 19 nM | CN1CCN(c2nc(N)nc3c2sc2cc(Cl)ccc23)CC1 [Example 63, 7-Chloro-4-(4-methyl-piperazin-1-yl)-benzo[4,5]thieno[3,2-d]pyrimidin-2-ylamine trifluoroacetic acid salt]
34 | 100 nM | CN[C@H]1CCN(c2nc(N)nc3c2sc2ccc(Cl)cc23)C1 [Example 65, (S)-8-Chloro-4-(3-methylamino-pyrrolidin-1-yl)-benzo[4,5]thieno[3,2-d]pyrimidin-2-ylamine trifluoroacetic acid salt]
